According to patent publication US11680043B2 (priority 2021, dated 2023):
Values joined by “and” are separate entries in the source; they are usually repeats but may differ in a detail not shown here. Equal entries are not always repeated. Structures can show the parent of a compound that is named as a salt.

Experiment: Solubility of psilocin salts in saline
Settings: for XRPD of Residue: solid residue after 5 hrs in saline (Table 9)
[1] = Saline, updated summary (Table 10)
[2] = pH of saturated solution in saline (Table 9)

Row | SMILES | pH at 5 hrs [1] | pH at 5 hrs [2] | XRPD of Residue | Solubility in Saline (Table 4 summary) [µg/mL] | pH at 5 hrs (Saline, updated summary (Table 10), hydrochloride) | pH at 5 hrs (pH of saturated solution in saline (Table 9), hydrochloride)
1 | CN(C)CCc1c[nH]c2cccc(O)c12.O=S(=O)(O)c1cccc2c(S(=O)(=O)O)cccc12 [Psilocin 1,5-napthalenedisulfonate NAP Pattern 1] | 2.0 | 2.0 | NAP Pattern 1 | – | – | –
2 | CN(C)CCc1c[nH]c2cccc(O)c12.O=C(O)c1ccccc1 [Psilocin benzoate BEN Pattern 1, Psilocin benzoate] | 6.8 and 6.9 | 6.8 and 6.9 | BEN Pattern 1 | 5000 | – | –
3 | CN(C)CCc1c[nH]c2cccc(O)c12 [Psilocin free base, Psilocin, reference compound] | 9.8 and 9.9 | 9.8 and 9.9 | Freeform Pattern 1 | – | – | –
4 | CN(C)CCc1c[nH]c2cccc(O)c12 [Psilocin hydrochloride HCl Pattern 1, Psilocin hydrochloride] | – | – | – | – | 4.0 and 5.4 | 6.0 and 6.1
5 | CN(C)CCc1c[nH]c2cccc(O)c12.O=C(O)c1ccccc1O [Psilocin salicylate SAL Pattern 1, Psilocin salicylate] | 4.2 | 4.2 | SAL Pattern 1 | – | – | –
